Assay results reported in PMC8119466, “A screen of FDA-approved drugs identifies inhibitors of protein tyrosine phosphatase 4A3 (PTP4A3 or PRL-3)” (Scientific Reports, 2021).
Structures can show the parent of a compound that is named as a salt. Non-standard residues stand in square brackets, D forms with d. Residues, ends and D or L forms follow the SMILES beside them. pGlu = O=C1CC[C@@H](C(=O)O)N1; Thz = O=C(O)[C@@H]1CSCN1

Legend:
Type in all cases: biochemical
Settings in all cases: FDA-approved drug screen; compared to DMSO
recombinant PRL-1 = molecular target: T1, recombinant PRL-1 (Homo sapiens, UniProt Q93096); assay: In vitro phosphatase assay (DiFMUP hydrolysis), PRL-1; note: test concentration or dose not given here
T1 construct: 6xHis (N, cleaved yes); made in house; host or cells: E. coli One Shot BL21 Star
T1 sequence (Q93096 1-173): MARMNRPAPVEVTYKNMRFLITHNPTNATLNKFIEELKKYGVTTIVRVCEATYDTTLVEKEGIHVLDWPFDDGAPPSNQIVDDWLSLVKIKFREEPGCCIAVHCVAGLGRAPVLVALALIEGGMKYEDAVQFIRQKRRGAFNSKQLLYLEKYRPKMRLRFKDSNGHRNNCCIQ

recombinant PRL-2 = molecular target: T2, recombinant PRL-2 (Homo sapiens, UniProt Q12974); assay: In vitro phosphatase assay (DiFMUP hydrolysis), PRL-2;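 note: PRL-2 activity read as DiFMUP hydrolysis after 20 min at room temperature with drug, enzyme first pre-reduced at 4 °C for 20 min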
T2 construct: 6xHis (N, cleaved yes); made in house; host or cells: E. coli One Shot BL21 Star
T2 sequence (Q12974 1-167): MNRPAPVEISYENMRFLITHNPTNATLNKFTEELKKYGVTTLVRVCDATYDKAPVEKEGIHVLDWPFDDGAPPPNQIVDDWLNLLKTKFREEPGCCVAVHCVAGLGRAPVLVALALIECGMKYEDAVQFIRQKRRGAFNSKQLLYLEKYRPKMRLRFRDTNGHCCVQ

recombinant PRL-3 = molecular target: T3, recombinant PRL-3 (Homo sapiens, UniProt O75365); assay: In vitro phosphatase assay (DiFMUP hydrolysis), PRL-3; note: test concentration or dose not given here
T3 construct: 6xHis (N, cleaved yes); made in house; host or cells: E. coli One Shot BL21 Star
T3 sequence (O75365 whole entry): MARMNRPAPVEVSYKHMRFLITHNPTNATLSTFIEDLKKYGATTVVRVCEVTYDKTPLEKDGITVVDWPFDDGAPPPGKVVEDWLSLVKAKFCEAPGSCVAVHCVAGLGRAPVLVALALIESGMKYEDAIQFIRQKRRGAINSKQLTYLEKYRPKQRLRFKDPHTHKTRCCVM

Cc1ccc(Nc2nccc(N(C)c3ccc4c(C)n(C)nc4c3)n2)cc1S(N)(=O)=O.Cl [Pazopanib HCl]
% Phosphatase Activity (compared to DMSO) PRL-1 (recombinant PRL-1): 86%
% Phosphatase Activity (compared to DMSO) PRL-2 (recombinant PRL-2): 83%
% Phosphatase Activity (compared to DMSO) PRL-3 (recombinant PRL-3): 82%

Cc1ccc(Nc2nccc(N(C)c3ccc4c(C)n(C)nc4c3)n2)cc1S(N)(=O)=O [Pazopanib]
% Phosphatase Activity (compared to DMSO) PRL-1 (recombinant PRL-1): 97%
% Phosphatase Activity (compared to DMSO) PRL-2 (recombinant PRL-2): 100%
% Phosphatase Activity (compared to DMSO) PRL-3 (recombinant PRL-3): 89%

CCOc1cc2ncc(C#N)c(Nc3ccc(F)c(Cl)c3)c2cc1NC(=O)/C=C/CN(C)C [Pelitinib (EKB-569)]
% Phosphatase Activity (compared to DMSO) PRL-1 (recombinant PRL-1): 111%
% Phosphatase Activity (compared to DMSO) PRL-2 (recombinant PRL-2): 120%
% Phosphatase Activity (compared to DMSO) PRL-3 (recombinant PRL-3): 97%

Nc1nc2[nH]cc(CCc3ccc(C(=O)N[C@@H](CCC(=O)O)C(=O)O)cc3)c2c(=O)[nH]1 [Pemetrexed]
% Phosphatase Activity (compared to DMSO) PRL-1 (recombinant PRL-1): 92%
% Phosphatase Activity (compared to DMSO) PRL-2 (recombinant PRL-2): 86%
% Phosphatase Activity (compared to DMSO) PRL-3 (recombinant PRL-3): 98%

Cc1cccn2c(=O)c(-c3nnn[nH]3)cnc12 [Pemirolast potassium]
% Phosphatase Activity (compared to DMSO) PRL-1 (recombinant PRL-1): 330%
% Phosphatase Activity (compared to DMSO) PRL-2 (recombinant PRL-2): 301%
% Phosphatase Activity (compared to DMSO) PRL-3 (recombinant PRL-3): 195%

Nc1nc2c(ncn2CCC(CO)CO)c(=O)[nH]1 [Penciclovir]
% Phosphatase Activity (compared to DMSO) PRL-1 (recombinant PRL-1): 98%
% Phosphatase Activity (compared to DMSO) PRL-2 (recombinant PRL-2): 95%
% Phosphatase Activity (compared to DMSO) PRL-3 (recombinant PRL-3): 74%

OC1(c2ccc(Cl)c(C(F)(F)F)c2)CCN(CCCC(c2ccc(F)cc2)c2ccc(F)cc2)CC1 [Penfluridol]
% Phosphatase Activity (compared to DMSO) PRL-1 (recombinant PRL-1): 100%
% Phosphatase Activity (compared to DMSO) PRL-2 (recombinant PRL-2): 128%
% Phosphatase Activity (compared to DMSO) PRL-3 (recombinant PRL-3): 89%

CC(C)(S)[C@@H](N)C(=O)O [Penicillamine]
% Phosphatase Activity (compared to DMSO) PRL-1 (recombinant PRL-1): 85%
% Phosphatase Activity (compared to DMSO) PRL-2 (recombinant PRL-2): 100%
% Phosphatase Activity (compared to DMSO) PRL-3 (recombinant PRL-3): 97%

N=C(N)c1ccc(OCCCCCOc2ccc(C(=N)N)cc2)cc1 [Pentamidine]
% Phosphatase Activity (compared to DMSO) PRL-1 (recombinant PRL-1): 113%
% Phosphatase Activity (compared to DMSO) PRL-2 (recombinant PRL-2): 116%
% Phosphatase Activity (compared to DMSO) PRL-3 (recombinant PRL-3): 95%

CC(=O)CCCCn1c(=O)c2c(ncn2C)n(C)c1=O [Pentoxifylline]
% Phosphatase Activity (compared to DMSO) PRL-1 (recombinant PRL-1): 85%
% Phosphatase Activity (compared to DMSO) PRL-2 (recombinant PRL-2): 92%
% Phosphatase Activity (compared to DMSO) PRL-3 (recombinant PRL-3): 92%

N#Cc1ccccc1-c1cc(-c2ccccn2)cn(-c2ccccc2)c1=O [Perampanel]
% Phosphatase Activity (compared to DMSO) PRL-1 (recombinant PRL-1): 488%
% Phosphatase Activity (compared to DMSO) PRL-2 (recombinant PRL-2): 376%
% Phosphatase Activity (compared to DMSO) PRL-3 (recombinant PRL-3): 451%

CCCN1C[C@H](CSC)C[C@@H]2c3cccc4[nH]cc(c34)C[C@H]21 [Pergolide mesylate]
% Phosphatase Activity (compared to DMSO) PRL-1 (recombinant PRL-1): 109%
% Phosphatase Activity (compared to DMSO) PRL-2 (recombinant PRL-2): 119%
% Phosphatase Activity (compared to DMSO) PRL-3 (recombinant PRL-3): 90%

CCC[C@H](N[C@@H](C)C(=O)N1[C@H](C(=O)O)C[C@@H]2CCCC[C@@H]21)C(=O)OCC [Perindopril Erbumine]
% Phosphatase Activity (compared to DMSO) PRL-1 (recombinant PRL-1): 88%
% Phosphatase Activity (compared to DMSO) PRL-2 (recombinant PRL-2): 84%
% Phosphatase Activity (compared to DMSO) PRL-3 (recombinant PRL-3): 96%

FC(F)(F)c1ccc(CNc2ccc(Cc3c[nH]c4ncc(Cl)cc34)cn2)cn1 [Pexidartinib (PLX3397)]
% Phosphatase Activity (compared to DMSO) PRL-1 (recombinant PRL-1): 102%
% Phosphatase Activity (compared to DMSO) PRL-2 (recombinant PRL-2): 100%
% Phosphatase Activity (compared to DMSO) PRL-3 (recombinant PRL-3): 101%

Cc1ccc(-n2nc(C(C)(C)C)cc2NC(=O)NCc2cc(F)ccc2Oc2ccc3c(cnn3CCO)c2)cc1 [Pexmetinib (ARRY-614)]
% Phosphatase Activity (compared to DMSO) PRL-1 (recombinant PRL-1): 106%
% Phosphatase Activity (compared to DMSO) PRL-2 (recombinant PRL-2): 103%
% Phosphatase Activity (compared to DMSO) PRL-3 (recombinant PRL-3): 117%

Nc1ccc(/N=N/c2ccccc2)c(N)n1 [Phenazopyridine HCl]
% Phosphatase Activity (compared to DMSO) PRL-1 (recombinant PRL-1): 64%
% Phosphatase Activity (compared to DMSO) PRL-2 (recombinant PRL-2): 61%
% Phosphatase Activity (compared to DMSO) PRL-3 (recombinant PRL-3): 55%

[H]/N=C(/N)N/C(=N/[H])NCCc1ccccc1 [Phenformin HCl]
% Phosphatase Activity (compared to DMSO) PRL-1 (recombinant PRL-1): 114%
% Phosphatase Activity (compared to DMSO) PRL-2 (recombinant PRL-2): 120%
% Phosphatase Activity (compared to DMSO) PRL-3 (recombinant PRL-3): 89%

O=C1c2ccccc2C(=O)C1c1ccccc1 [Phenindione]
% Phosphatase Activity (compared to DMSO) PRL-1 (recombinant PRL-1): 93%
% Phosphatase Activity (compared to DMSO) PRL-2 (recombinant PRL-2): 100%
% Phosphatase Activity (compared to DMSO) PRL-3 (recombinant PRL-3): 84%

CN(C)CCC(c1ccccc1)c1ccccn1 (stereo not drawn) [Pheniramine Maleate]
% Phosphatase Activity (compared to DMSO) PRL-1 (recombinant PRL-1): 98%
% Phosphatase Activity (compared to DMSO) PRL-2 (recombinant PRL-2): 104%
% Phosphatase Activity (compared to DMSO) PRL-3 (recombinant PRL-3): 70%

CC(COc1ccccc1)N(CCCl)Cc1ccccc1 (stereo not drawn) [Phenoxybenzamine HCl]
% Phosphatase Activity (compared to DMSO) PRL-1 (recombinant PRL-1): 106%
% Phosphatase Activity (compared to DMSO) PRL-2 (recombinant PRL-2): 112%
% Phosphatase Activity (compared to DMSO) PRL-3 (recombinant PRL-3): 81%

Cc1ccc(N(CC2=NCCN2)c2cccc(O)c2)cc1 [Phentolamine Mesylate]
% Phosphatase Activity (compared to DMSO) PRL-1 (recombinant PRL-1): 92%
% Phosphatase Activity (compared to DMSO) PRL-2 (recombinant PRL-2): 117%
% Phosphatase Activity (compared to DMSO) PRL-3 (recombinant PRL-3): 90%

CCCCC1C(=O)N(c2ccccc2)N(c2ccccc2)C1=O [Phenylbutazone]
% Phosphatase Activity (compared to DMSO) PRL-1 (recombinant PRL-1): 104%
% Phosphatase Activity (compared to DMSO) PRL-2 (recombinant PRL-2): 84%
% Phosphatase Activity (compared to DMSO) PRL-3 (recombinant PRL-3): 81%

CNC[C@H](O)c1cccc(O)c1 [Phenylephrine HCl]
% Phosphatase Activity (compared to DMSO) PRL-1 (recombinant PRL-1): 103%
% Phosphatase Activity (compared to DMSO) PRL-2 (recombinant PRL-2): 98%
% Phosphatase Activity (compared to DMSO) PRL-3 (recombinant PRL-3): 85%

O=C1NC(=O)C(c2ccccc2)(c2ccccc2)N1 [Phenytoin sodium]
% Phosphatase Activity (compared to DMSO) PRL-1 (recombinant PRL-1): 100%
% Phosphatase Activity (compared to DMSO) PRL-2 (recombinant PRL-2): 100%
% Phosphatase Activity (compared to DMSO) PRL-3 (recombinant PRL-3): 68%

CC(=O)NS(=O)(=O)c1ccc(NC(=O)c2ccccc2C(=O)O)cc1 [Phthalylsulfacetamide]
% Phosphatase Activity (compared to DMSO) PRL-1 (recombinant PRL-1): 104%
% Phosphatase Activity (compared to DMSO) PRL-2 (recombinant PRL-2): 120%
% Phosphatase Activity (compared to DMSO) PRL-3 (recombinant PRL-3): 101%

O=C1CC[C@@H](C(=O)N2CSC[C@H]2C(=O)O)N1 [Pidotimod] ([pGlu]-[Thz]-OH)
% Phosphatase Activity (compared to DMSO) PRL-1 (recombinant PRL-1): 113%
% Phosphatase Activity (compared to DMSO) PRL-2 (recombinant PRL-2): 103%
% Phosphatase Activity (compared to DMSO) PRL-3 (recombinant PRL-3): 83%

Cc1ccc(S(=O)(=O)Nc2nc3ccccc3nc2Nc2ccc3nsnc3c2)cc1 [Pilaralisib (XL147)]
% Phosphatase Activity (compared to DMSO) PRL-1 (recombinant PRL-1): 94%
% Phosphatase Activity (compared to DMSO) PRL-2 (recombinant PRL-2): 65%
% Phosphatase Activity (compared to DMSO) PRL-3 (recombinant PRL-3): 98%

O=C(NC[C@H](O)CO)c1ccncc1Nc1ccc(I)cc1F [Pimasertib (AS-703026)]
% Phosphatase Activity (compared to DMSO) PRL-1 (recombinant PRL-1): 99%
% Phosphatase Activity (compared to DMSO) PRL-2 (recombinant PRL-2): 92%
% Phosphatase Activity (compared to DMSO) PRL-3 (recombinant PRL-3): 84%

CC(C)COc1ccc(CNC(=O)N(Cc2ccc(F)cc2)C2CCN(C)CC2)cc1 [Pimavanserin]
% Phosphatase Activity (compared to DMSO) PRL-1 (recombinant PRL-1): 95%
% Phosphatase Activity (compared to DMSO) PRL-2 (recombinant PRL-2): 88%
% Phosphatase Activity (compared to DMSO) PRL-3 (recombinant PRL-3): 95%

CC[C@@H]1/C=C(\C)C[C@H](C)C[C@H](OC)[C@H]2O[C@@](O)(C(=O)C(=O)N3CCCC[C@H]3C(=O)O[C@H](/C(C)=C/[C@@H]3CC[C@H](Cl)[C@H](OC)C3)[C@H](C)[C@@H](O)CC1=O)[C@H](C)C[C@@H]2OC [Pimecrolimus]
% Phosphatase Activity (compared to DMSO) PRL-1 (recombinant PRL-1): 87%
% Phosphatase Activity (compared to DMSO) PRL-2 (recombinant PRL-2): 73%
% Phosphatase Activity (compared to DMSO) PRL-3 (recombinant PRL-3): 101%

COc1ccc(-c2nc3ccc(C4=NNC(=O)CC4C)cc3[nH]2)cc1 (stereo not drawn) [Pimobendan]
% Phosphatase Activity (compared to DMSO) PRL-1 (recombinant PRL-1): 122%
% Phosphatase Activity (compared to DMSO) PRL-2 (recombinant PRL-2): 118%
% Phosphatase Activity (compared to DMSO) PRL-3 (recombinant PRL-3): 95%

O=c1[nH]c2ccccc2n1C1CCN(CCCC(c2ccc(F)cc2)c2ccc(F)cc2)CC1 [Pimozide]
% Phosphatase Activity (compared to DMSO) PRL-1 (recombinant PRL-1): 91%
% Phosphatase Activity (compared to DMSO) PRL-2 (recombinant PRL-2): 106%
% Phosphatase Activity (compared to DMSO) PRL-3 (recombinant PRL-3): 96%

CCc1ccc(CCOc2ccc(CC3SC(=O)NC3=O)cc2)nc1 (stereo not drawn) [Pioglitazone HCl]
% Phosphatase Activity (compared to DMSO) PRL-1 (recombinant PRL-1): 81%
% Phosphatase Activity (compared to DMSO) PRL-2 (recombinant PRL-2): 100%
% Phosphatase Activity (compared to DMSO) PRL-3 (recombinant PRL-3): 86%

CCc1ccc(CCOc2ccc(CC3SC(=O)NC3=O)cc2)nc1 (stereo not drawn) [Pioglitazone]
% Phosphatase Activity (compared to DMSO) PRL-1 (recombinant PRL-1): 103%
% Phosphatase Activity (compared to DMSO) PRL-2 (recombinant PRL-2): 105%
% Phosphatase Activity (compared to DMSO) PRL-3 (recombinant PRL-3): 80%
